According to patent publication US11072588B2, “Barbituric acid derivatives comprising cationic and lipophilic groups” (UNIVERSITETET I TROMSØ—NORGES ARKTISKE UNIVERSITET, priority 2017, dated 2021):
Where two headings read alike, the source gives them in different places.

Legend:
E. coli 50739822 = assay: MIC, multi-resistant clinical isolate; format: cell-based, Escherichia coli; conditions: for MIC: Escherichia coli, read-out: Antimicrobial activity (MIC); for selectivity index (EC50/MIC): RBC EC50 / MIC
Procedure: (§1) Working solutions of the test derivatives were prepared with up to 100% DMSO and stored at −20° C. If necessary, the solutions were heated to 40-80° C. before testing to facilitate complete dissolution. Double-distilled water was used in all dilutions prepared. […] A microdilution susceptibility test was used for MIC determination according to Clinical and Laboratory Standards Institute, “Methods for Dilution Antimicrobial Sisceptibility Tests for Bacteria That Graw Aerobically”, Approved Standard M07-A9, edition 2012, with modifications as described by Igumnova et al (Bioorg Med Chem, 2016, 24 (22), 5884-5894).
(§2) Briefly, the bacterial inoculum was adjusted to approximately 2.5-3×10^4 cells/mL in Mueller-Hinton broth (MHB, Difco Laboratories, USA), and incubated in a ratio of 1:1 with test derivatives in polystyrene 96-well flat-bottom microplates (NUNC, Roskilde, Denmark). Positive growth control (without test derivatives) and negative control (without bacteria) were included. The reference antibiotic was oxytetracycline hydrochloride (Sigma Aldrich, Saint Louis, Mo., USA). The microplates were incubated in an EnVision microplate reader (Perkin-Elmer, Turku, Finland) placed in an incubator set to 35° C. for 48 h. The MIC value was defined as the lowest concentration of derivative resulting in no bacterial growth as determined by OD600 measurement. All derivatives were tested in three parallels.
(§3) The MIC was determined as explained above with some exceptions; working solutions of test derivatives were prepared from concentrated DMSO stocks stored at room temperature, the density of the bacterial inoculum was increased 40× to 1-1.2×10^6 cells/mL, enterococci were incubated in Brain Heart Infusion broth (BHIB, Difco Laboratories, USA), the microplates were incubated for 24 h, and the derivatives were tested in four parallels.

E. coli 50676002 = assay: MIC, multi-resistant clinical isolate; format: cell-based, Escherichia coli; conditions: for selectivity index (EC50/MIC): RBC EC50 / MIC
Procedure: as §1, §2, §3

P. aeruginosa K44-24 = assay: MIC, multi-resistant clinical isolate; format: cell-based, Pseudomonas aeruginosa; conditions: for MIC: Pseudomonas aeruginosa, K4424, read-out: Antimicrobial activity (MIC)
Procedure: as §1, §2, §3

P. aeruginosa 50692172 = assay: MIC, multi-resistant clinical isolate; format: cell-based, Pseudomonas aeruginosa; conditions: for MIC: Pseudomonas aeruginosa, read-out: Antimicrobial activity (MIC)
Procedure: as §1, §2, §3

P. aeruginosa 50692520 = assay: MIC, multi-resistant clinical isolate; format: cell-based, Pseudomonas aeruginosa; conditions: for MIC: Pseudomonas aeruginosa, read-out: Antimicrobial activity (MIC)
Procedure: as §1, §2, §3

P. aeruginosa K34-7 = assay: MIC, multi-resistant clinical isolate; format: cell-based, Pseudomonas aeruginosa; conditions: for MIC: Pseudomonas aeruginosa, K347, read-out: Antimicrobial activity (MIC)
Procedure: as §1, §2, §3

P. aeruginosa K34-73 = assay: MIC, multi-resistant clinical isolate; format: cell-based, Pseudomonas aeruginosa; conditions: for MIC: Pseudomonas aeruginosa
Procedure: as §1, §2, §3

A. baumanii K63-58 = assay: MIC, multi-resistant clinical isolate; format: cell-based, Acinetobacter baumannii; conditions: A. baumanii K63-58, resistant to colistin; for MIC: Acinetobacter baumannii, K6358, 24 h, read-out: Antimicrobial activity (MIC); for selectivity index (EC50/MIC): RBC EC50 / MIC
Procedure: as §1, §2, §3

A. baumanii K44-35 = assay: MIC, multi-resistant clinical isolate; format: cell-based, Acinetobacter baumannii; conditions: for MIC: Acinetobacter baumannii, K4435, read-out: Antimicrobial activity (MIC); for selectivity index (EC50/MIC): RBC EC50 / MIC
Procedure: as §1, §2, §3

A. baumanii K47-42 = assay: MIC, multi-resistant clinical isolate; format: cell-based, Acinetobacter baumannii; conditions: for MIC: Acinetobacter baumannii, K4742, read-out: Antimicrobial activity (MIC); for selectivity index (EC50/MIC): RBC EC50 / MIC
Procedure: as §1, §2, §3

A. baumanii K55-13 = assay: MIC, multi-resistant clinical isolate; format: cell-based, Acinetobacter baumannii; conditions: for MIC: Acinetobacter baumannii, K5513, read-out: Antimicrobial activity (MIC); for selectivity index (EC50/MIC): RBC EC50 / MIC
Procedure: as §1, §2, §3

A. baumanii K12-21 = assay: MIC, multi-resistant clinical isolate; format: cell-based, Acinetobacter baumannii; conditions: for MIC: Acinetobacter baumannii, K1221, read-out: Antimicrobial activity (MIC); for selectivity index (EC50/MIC): RBC EC50 / MIC
Procedure: as §1, §2, §3

S. aureus N315 = assay: MIC, multi-resistant clinical isolate; format: cell-based, Staphylococcus aureus; conditions: for selectivity index (EC50/MIC): RBC EC50 / MIC, S. aureus N315; for MIC: Staphylococcus aureus, N315, read-out: Antimicrobial activity (MIC)
Procedure: as §1, §2, §3

S. aureus NCTC 10442 = assay: MIC, multi-resistant clinical isolate; format: cell-based, Staphylococcus aureus; conditions: for selectivity index (EC50/MIC): RBC EC50 / MIC, S. aureus NCTC 10442; for MIC: Staphylococcus aureus, NCTC10442, read-out: Antimicrobial activity (MIC)
Procedure: as §1, §2, §3

S. aureus strain 85/2082 = assay: MIC, multi-resistant clinical isolate; format: cell-based, Staphylococcus aureus; conditions: for selectivity index (EC50/MIC): RBC EC50 / MIC, S. aureus strain 85/2082; for MIC: Staphylococcus aureus, 85/2082, read-out: Antimicrobial activity (MIC)
Procedure: as §1, §2, §3

S. aureus IHT 99040 = assay: MIC, multi-resistant clinical isolate; format: cell-based, Staphylococcus aureus; conditions: for selectivity index (EC50/MIC): RBC EC50 / MIC; for MIC: Staphylococcus aureus, IHT99040, read-out: Antimicrobial activity (MIC)
Procedure: as §1, §2, §3

S. aureus strain WIS = assay: MIC, multi-resistant clinical isolate; format: cell-based, Staphylococcus aureus; conditions: for selectivity index (EC50/MIC): RBC EC50 / MIC, S. aureus strain WIS; for MIC: Staphylococcus aureus, read-out: Antimicrobial activity (MIC)
Procedure: as §1, §2, §3

[1] = tested on: human metastatic melanoma (A2058, ATCC CRL-11147) cells; assay: Anti-cancer activity against A2058 cells; format: cell-based; conditions: A2058, read-out: Anti-cancer IC50
Procedure: Cytotoxicity of the test compounds was evaluated after 72 hour exposure to human metastatic melanoma (A2058, ATCC CRL-11147) cells.
A2058 cells were grown overnight (2,000 cells/well), and then incubated with the test compounds (range of concentrations) diluted in MEM Earle's supplemented with gentamycin (10 μg/mL), non-essential amino acids (1%), sodium pyruvate (1 mM), L-alanyl-Lglutamine (2 mM), but without FBS (total volume was 100 μl) for […]. Ten μL of CellTiter 96® AQueous One Solution Reagent (Promega, Madison, Wis., USA) was added, and the plates were then further incubated for 1 hour.
Absorbance was measured at 485 nm in a DTX 880 Multimode Detector. Results were calculated as % survival compared to negative (assay media) and positive (Triton X-100; Sigma-Aldrich) controls.

CC(C)(C)c1cc(CC2(Cc3cc(C(C)(C)C)cc(C(C)(C)C)c3)C(=O)N(CCCCNC(=N)N)C(=O)N(CCCCNC(=N)N)C2=O)cc(C(C)(C)C)c1 [8(iii), 1,1′-(4,4′-(5,5-bis(3,5-di-tert-butylbenzyl)-2,4,6-trioxodihydropyrimidine-1,3(2H,4H)-diyl)bis(butane-4,1-diyl))-diguanidine]
(<2): selectivity index (EC50/MIC) (S. aureus NCTC 10442) | selectivity index (EC50/MIC) (S. aureus strain 85/2082) | selectivity index (EC50/MIC) (S. aureus IHT 99040) | selectivity index (EC50/MIC) (S. aureus strain WIS)
(<0.5): selectivity index (EC50/MIC) (E. coli 50739822) | selectivity index (EC50/MIC) (P. aeruginosa K34-73; RBC EC50 / MIC, P. aeruginosa K34-73)
16 µg/mL: MIC (E. coli 50676002; Escherichia coli, E. coli 50676002, read-out: Antimicrobial activity (MIC)) | MIC (P. aeruginosa K44-24) | MIC (P. aeruginosa 50692172) | MIC (P. aeruginosa 50692520) | MIC (P. aeruginosa K34-7)
33 µg/mL: IC50 [1]
8 µg/mL: MIC (E. coli 50739822) | MIC (P. aeruginosa K34-73; K3473, P. aeruginosa K34-73, read-out: Antimicrobial activity (MIC))
(<0.25): selectivity index (EC50/MIC) (E. coli 50676002; E. coli 50676002) | selectivity index (EC50/MIC) (P. aeruginosa K44-24; RBC EC50 / MIC) | selectivity index (EC50/MIC) (P. aeruginosa 50692172; RBC EC50 / MIC) | selectivity index (EC50/MIC) (P. aeruginosa 50692520; RBC EC50 / MIC) | selectivity index (EC50/MIC) (P. aeruginosa K34-7; RBC EC50 / MIC, P. aeruginosa K34-7)
2 µg/mL: MIC (S. aureus NCTC 10442) | MIC (S. aureus strain 85/2082) | MIC (S. aureus IHT 99040) | MIC (S. aureus strain WIS)
4 µg/mL: MIC (A. baumanii K63-58) | MIC (A. baumanii K44-35) | MIC (A. baumanii K47-42) | MIC (A. baumanii K55-13) | MIC (A. baumanii K12-21) | MIC (S. aureus N315)
(<1): selectivity index (EC50/MIC) (A. baumanii K63-58) | selectivity index (EC50/MIC) (A. baumanii K44-35) | selectivity index (EC50/MIC) (A. baumanii K47-42) | selectivity index (EC50/MIC) (A. baumanii K55-13) | selectivity index (EC50/MIC) (A. baumanii K12-21) | selectivity index (EC50/MIC) (S. aureus N315)

CC(C)(C)c1ccc(CC2(Cc3ccc(C(C)(C)C)cc3)C(=O)N(CCCCN)C(=O)N(CCCCN)C2=O)cc1 [Compound 7(i), 1,3-bis(4-aminobutyl)-5,5-bis(4-tertbutylbenzyl) pyrimidin-2,4,6(1H,3H,5H)-trione]
(4): selectivity index (EC50/MIC) (A. baumanii K44-35)
16 µg/mL: MIC (A. baumanii K63-58) | MIC (A. baumanii K47-42) | MIC (A. baumanii K55-13) | MIC (A. baumanii K12-21)
> 32 µg/mL: MIC (P. aeruginosa K44-24) | MIC (P. aeruginosa 50692172) | MIC (P. aeruginosa 50692520) | MIC (P. aeruginosa K34-7) | MIC (P. aeruginosa K34-73; K3473, read-out: Antimicrobial activity (MIC))
(36): selectivity index (EC50/MIC) (E. coli 50676002; E. coli 50676002)
(18): selectivity index (EC50/MIC) (E. coli 50739822) | selectivity index (EC50/MIC) (S. aureus N315) | selectivity index (EC50/MIC) (S. aureus NCTC 10442) | selectivity index (EC50/MIC) (S. aureus strain 85/2082) | selectivity index (EC50/MIC) (S. aureus IHT 99040) | selectivity index (EC50/MIC) (S. aureus strain WIS)
4 µg/mL: MIC (E. coli 50676002; Escherichia coli, 50676002, read-out: Antimicrobial activity (MIC))
32 µg/mL: MIC (A. baumanii K44-35)
8 µg/mL: MIC (E. coli 50739822) | MIC (S. aureus N315) | MIC (S. aureus NCTC 10442) | MIC (S. aureus strain 85/2082) | MIC (S. aureus IHT 99040) | MIC (S. aureus strain WIS)
1 µg/mL: IC50 [1]
(9): selectivity index (EC50/MIC) (A. baumanii K63-58) | selectivity index (EC50/MIC) (A. baumanii K47-42) | selectivity index (EC50/MIC) (A. baumanii K55-13) | selectivity index (EC50/MIC) (A. baumanii K12-21)
